Test results as given in patent US8251060B2, “Device and method for delivering an aerosol drug” (priority 2006, dated 2012).

Tests used:
[1] = aerosol formed from the polyol; cited from earlier work
[2] = Mass transfer of polyol-drug formulations from substrate in device with puffing equipment; effluent collected on Cambridge pads, weighed, nicotine by GC/MS; conditions: after heating in device with PEG

Compound | MMAD [1] | decomposition products from nicotine in the chromatograms (GC/MS of extracts of collected effluent) [2]
OCC(O)CO [Glycerin] | less than 1.5 micrometers | 
CC(O)CO (stereo not shown) [Propylene Glycol (PEG), Propylene Glycol] | less than 0.9 micrometers | 
CN1CCCC1c1cccnc1 (stereo not shown) [NIC, nicotine] |  | no measurable decomposition products
CN1CCCC1c1cccnc1.O=C(O)C(O)C(O)C(=O)O (stereo not shown) [NIC B, nicotine bitartrate] |  | no measurable decomposition products
